Reference: PMC10066365, “Nemacol is a small molecule inhibitor of C. elegans vesicular acetylcholine transporter with anthelmintic potential” (Nature Communications, 2023)
Where “and” joins values, the source holds several entries; their conditions need not be identical. Equal entries are not always repeated.

What was measured:
Pristionchus pacificus = Pristionchus pacificus motor disruption dose-response on solid media, 1 h; settings: for EC50: Pristionchus pacificus, 1 h, read-out: P. pacificus motor disruption EC50; for mean % any phene: any phenotype (coiled, jerky-Unc or paralyzed) at one hour, mean of three biological replicates; for rep 1 atypical locomotion / rep 1 coiled / rep 1 no phene / rep 1 paralyzed / rep 2 atypical locomotion / rep 2 coiled / rep 2 no phene / rep 2 paralyzed / rep 3 atypical locomotion / rep 3 coiled / rep 3 no phene / rep 3 paralyzed: count of 20 animals per trial, one hour
Protocol: Locomotor phenotype analyses were done in 24-well plates with 1 mL of MYOB substrate (27.5 g Trizma HCl, 12 g Trizma Base, 230 g bacto tryptone, 10 g NaCl, 0.4 g cholesterol (95%)) seeded with 25 µL of OP50 Escherichia coli on each well. Each compound was added to the MYOB substrate before pouring to achieve the desired final concentrations of 30 µM or 60 µM after diffusion through the media. Synchronized young adult worms are transferred into each well using a platinum wire pick. A Leica MZ75 stereomicroscope was used to visualize the movement of worms on the solid substrate. The specific dominant locomotor phenotype (i.e. ‘Punc’, ‘paralyzed’, ‘coiler’ or ‘wild-type locomotion’) was scored after the touch on the head with a platinum wire over a ~3–5 s of observation. […] Coiled animals were not scored as paralyzed despite sometimes not responding to light touch.

[1] = tested on: Dirofilaria immitis L3/L4; assay: Dirofilaria immitis L3/L4 motility assay (DiroImager, 72 h); settings: Dirofilaria immitis L4
[2] = tested on: Dirofilaria immitis microfilariae; assay: Dirofilaria immitis microfilariae immobility assay (DiroImager, 72 h); settings: for % effect (motility), DIROIM MF: Dirofilaria immitis microfilariae
How it was run: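 Motility read after 72 h drug exposure with an image-based high-throughput plate imager, 1% DMSO medium serving as negative control. Missouri-isolate microfilariae, roughly 250 per well, freshly purified and cultured in supplemented RPMI 1640.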

C. elegans = C. elegans motor phenotype scoring on solid media (Punc/jerky-unc, coiled, paralyzed), wild-type young adults; assay type: in vivo, Caenorhabditis elegans; settings: for atypical locomotion (number of animals) / coiled (number of animals) / no phene (number of animals) / paralyzed (number of animals) / any phene: mean % fraction of young adults exhibiting any phenotype (coiled, jerky-Unc or paralyzed): one hour; for atypical locomotion (number of animals) / coiled (number of animals) / no phene (number of animals) / paralyzed (number of animals): young adults, 20 animals per trial, single technical replicate; for any phene: mean % fraction of young adults exhibiting any phenotype (coiled, jerky-Unc or paralyzed): mean of three biological replicates; for EC50: Caenorhabditis elegans, any motor phenotype after 1 h on solid media, ± 95% CI, read-out: C. elegans - motor disruption EC50

c1ccc(N2CCN(C3CCCCCCC3)CC2)cc1 [Nemacol-54] was tested, and the EC50 (Pristionchus pacificus) was 52.4 µM, the “mean % any phene” value (Pristionchus pacificus; conc 3.75) was 0% and the “rep 1 atypical locomotion” value (Pristionchus pacificus; conc 3.75) was 0. For the same molecule, the “rep 1 coiled” value (Pristionchus pacificus; conc 3.75) was 0, the “rep 1 no phene” value (Pristionchus pacificus; conc 3.75) was 20 and the “rep 1 paralyzed” value (Pristionchus pacificus; conc 3.75) was 0. The “rep 2 atypical locomotion” value (Pristionchus pacificus; conc 3.75) was 0, the “rep 2 coiled” value (Pristionchus pacificus; conc 3.75) was 0 and the “rep 2 no phene” value (Pristionchus pacificus; conc 3.75) was 20. For the same molecule, the “rep 2 paralyzed” value (Pristionchus pacificus; conc 3.75) was 0, the “rep 3 atypical locomotion” value (Pristionchus pacificus; conc 3.75) was 0 and the “rep 3 coiled” value (Pristionchus pacificus; conc 3.75) was 0. The “rep 3 no phene” value (Pristionchus pacificus; conc 3.75) was 20, the “rep 3 paralyzed” value (Pristionchus pacificus; conc 3.75) was 0 and the “mean % any phene” value (Pristionchus pacificus; conc 15) was 0%. The “rep 1 atypical locomotion” value (Pristionchus pacificus; conc 15) was 0, the “rep 1 coiled” value (Pristionchus pacificus; conc 15) was 0 and the “rep 1 no phene” value (Pristionchus pacificus; conc 15) was 20. For the same molecule, the “rep 1 paralyzed” value (Pristionchus pacificus; conc 15) was 0, the “rep 2 atypical locomotion” value (Pristionchus pacificus; conc 15) was 0 and the “rep 2 coiled” value (Pristionchus pacificus; conc 15) was 0. For the same molecule, the “rep 2 no phene” value (Pristionchus pacificus; conc 15) was 20, the “rep 2 paralyzed” value (Pristionchus pacificus; conc 15) was 0 and the “rep 3 atypical locomotion” value (Pristionchus pacificus; conc 15) was 0. The “rep 3 coiled” value (Pristionchus pacificus; conc 15) was 0, the “rep 3 no phene” value (Pristionchus pacificus; conc 15) was 20 and the “rep 3 paralyzed” value (Pristionchus pacificus; conc 15) was 0. The “mean % any phene” value (Pristionchus pacificus; conc 60) was 92.5%, the “rep 1 atypical locomotion” value (Pristionchus pacificus; conc 60) was 6 and 10 and the “rep 1 coiled” value (Pristionchus pacificus; conc 60) was 5 and 4. For the same molecule, the “rep 1 no phene” value (Pristionchus pacificus; conc 60) was 5 and 4, the “rep 1 paralyzed” value (Pristionchus pacificus; conc 60) was 4 and 2 and the “rep 2 atypical locomotion” value (Pristionchus pacificus; conc 60) was 12 and 10. The “rep 2 coiled” value (Pristionchus pacificus; conc 60) was 5 and 7, the “rep 2 no phene” value (Pristionchus pacificus; conc 60) was 0 and the “rep 2 paralyzed” value (Pristionchus pacificus; conc 60) was 3. For the same molecule, the “rep 3 atypical locomotion” value (Pristionchus pacificus; conc 60) was 9 and 10, the “rep 3 coiled” value (Pristionchus pacificus; conc 60) was 8 and 7 and the “rep 3 no phene” value (Pristionchus pacificus; conc 60) was 0. The “rep 3 paralyzed” value (Pristionchus pacificus; conc 60) was 3, the “% effect (motility), DIROIM L4” value ([1]; 10 µM) was 0% and the “% effect (motility), DIROIM L4” value ([1]; 50 µM) was 25%. The “% effect (motility), DIROIM MF” value ([2]; 0.016 µM) was 0%, the “% effect (motility), DIROIM MF” value ([2]; 0.08 µM) was 0% and the “% effect (motility), DIROIM MF” value ([2]; 0.4 µM) was 0%. The “% effect (motility), DIROIM MF” value ([2]; 2 µM) was 0%, the “% effect (motility), DIROIM MF” value ([2]; 10 µM) was 0% and the “atypical locomotion (number of animals)” value (C. elegans; 3.75uM) was 7 and 14 and 6 and 3 and 12 and 10. For the same molecule, the “coiled (number of animals)” value (C. elegans; 3.75uM) was 0, the “no phene (number of animals)” value (C. elegans; 3.75uM) was 11 and 4 and 14 and 17 and 8 and 10 and the “paralyzed (number of animals)” value (C. elegans; 3.75uM) was 2 and 0. For the same molecule, the “any phene: mean % fraction of young adults exhibiting any phenotype (coiled, jerky-Unc or paralyzed)” value (“any phene: mean % fraction” for short) (C. elegans; 3.75uM) was 46.6667%, the “atypical locomotion (number of animals)” value (C. elegans; 15uM) was 8 and 13 and 15 and 18 and 17 and the “coiled (number of animals)” value (C. elegans; 15uM) was 2 and 1 and 0. For the same molecule, the “no phene (number of animals)” value (C. elegans; 15uM) was 0 and 5 and 3, the “paralyzed (number of animals)” value (C. elegans; 15uM) was 10 and 6 and 0 and 1 and the “any phene: mean % fraction” value (C. elegans; 15uM) was 93.3333%. The “atypical locomotion (number of animals)” value (C. elegans; 60uM) was 2 and 4 and 6 and 5 and 3, the “coiled (number of animals)” value (C. elegans; 60uM) was 8 and 7 and 5 and 4 and 9 and the “no phene (number of animals)” value (C. elegans; 60uM) was 0. The “paralyzed (number of animals)” value (C. elegans; 60uM) was 10 and 9 and 8 and 11 and the EC50 (C. elegans) was 4 ± 1.1 µM.
For O=[N+]([O-])c1ccc(N2CCN(C3CCCCC3)CC2)cc1 [Nemacol-64], the EC50 (Pristionchus pacificus) was 14.3 µM, the “mean % any phene” value (Pristionchus pacificus; conc 3.75) was 0% and the “rep 1 atypical locomotion” value (Pristionchus pacificus; conc 3.75) was 0. For the same molecule, the “rep 1 coiled” value (Pristionchus pacificus; conc 3.75) was 0, the “rep 1 no phene” value (Pristionchus pacificus; conc 3.75) was 20 and the “rep 1 paralyzed” value (Pristionchus pacificus; conc 3.75) was 0. The “rep 2 atypical locomotion” value (Pristionchus pacificus; conc 3.75) was 0, the “rep 2 coiled” value (Pristionchus pacificus; conc 3.75) was 0 and the “rep 2 no phene” value (Pristionchus pacificus; conc 3.75) was 20. The “rep 2 paralyzed” value (Pristionchus pacificus; conc 3.75) was 0, the “rep 3 atypical locomotion” value (Pristionchus pacificus; conc 3.75) was 0 and the “rep 3 coiled” value (Pristionchus pacificus; conc 3.75) was 0. For the same molecule, the “rep 3 no phene” value (Pristionchus pacificus; conc 3.75) was 20, the “rep 3 paralyzed” value (Pristionchus pacificus; conc 3.75) was 0 and the “mean % any phene” value (Pristionchus pacificus; conc 15) was 70.8333%. For the same molecule, the “rep 1 atypical locomotion” value (Pristionchus pacificus; conc 15) was 10 and 14, the “rep 1 no phene” value (Pristionchus pacificus; conc 15) was 7 and 5 and the “rep 1 paralyzed” value (Pristionchus pacificus; conc 15) was 0. For the same molecule, the “rep 2 atypical locomotion” value (Pristionchus pacificus; conc 15) was 14 and 12, the “rep 2 no phene” value (Pristionchus pacificus; conc 15) was 5 and 8 and the “rep 2 paralyzed” value (Pristionchus pacificus; conc 15) was 0. For the same molecule, the “rep 3 atypical locomotion” value (Pristionchus pacificus; conc 15) was 15 and 12, the “rep 3 coiled” value (Pristionchus pacificus; conc 15) was 2 and 1 and the “rep 3 paralyzed” value (Pristionchus pacificus; conc 15) was 0. For the same molecule, the “mean % any phene” value (Pristionchus pacificus; conc 60) was 100%, the “rep 1 atypical locomotion” value (Pristionchus pacificus; conc 60) was 2 and 1 and the “rep 1 coiled” value (Pristionchus pacificus; conc 60) was 8 and 12. For the same molecule, the “rep 1 no phene” value (Pristionchus pacificus; conc 60) was 0, the “rep 1 paralyzed” value (Pristionchus pacificus; conc 60) was 10 and 7 and the “rep 2 atypical locomotion” value (Pristionchus pacificus; conc 60) was 0. For the same molecule, the “rep 2 coiled” value (Pristionchus pacificus; conc 60) was 9 and 11, the “rep 2 no phene” value (Pristionchus pacificus; conc 60) was 0 and the “rep 2 paralyzed” value (Pristionchus pacificus; conc 60) was 11 and 9. For the same molecule, the “rep 3 coiled” value (Pristionchus pacificus; conc 60) was 10 and 11, the “rep 3 no phene” value (Pristionchus pacificus; conc 60) was 0 and the “rep 3 paralyzed” value (Pristionchus pacificus; conc 60) was 7 and 8. The “% effect (motility), DIROIM L4” value ([1]; 2 µM) was 0%, the “% effect (motility), DIROIM L4” value ([1]; 10 µM) was 0% and the “% effect (motility), DIROIM L4” value ([1]; 50 µM) was 100%. For the same molecule, the “% effect (motility), DIROIM MF” value ([2]; 0.016 µM) was 0%, the “% effect (motility), DIROIM MF” value ([2]; 0.08 µM) was 0% and the “% effect (motility), DIROIM MF” value ([2]; 0.4 µM) was 0%. The “% effect (motility), DIROIM MF” value ([2]; 2 µM) was 0%, the “% effect (motility), DIROIM MF” value ([2]; 10 µM) was 40% and the EC50 ([2]; Dirofilaria immitis, 72 h, read-out: Dirofilaria immitis filariae EC50) was 11 µM. For the same molecule, the “atypical locomotion (number of animals)” value (C. elegans; 3.75uM) was 18 and 13 and 2 and 10 and 6, the “coiled (number of animals)” value (C. elegans; 3.75uM) was 2 and 5 and 16 and 1 and 3 and the “no phene (number of animals)” value (C. elegans; 3.75uM) was 0 and 2 and 1 and 8 and 11. The “paralyzed (number of animals)” value (C. elegans; 3.75uM) was 0 and 2 and 1, the “any phene: mean % fraction” value (C. elegans; 3.75uM) was 81.6667% and the “atypical locomotion (number of animals)” value (C. elegans; 15uM) was 11 and 10 and 4 and 3 and 16 and 14. The “coiled (number of animals)” value (C. elegans; 15uM) was 9 and 8 and 15 and 14 and 3 and 2, the “no phene (number of animals)” value (C. elegans; 15uM) was 0 and 2 and the “paralyzed (number of animals)” value (C. elegans; 15uM) was 0 and 2 and 1 and 3. The “any phene: mean % fraction” value (C. elegans; 15uM) was 96.746%, the “atypical locomotion (number of animals)” value (C. elegans; 60uM) was 3 and 2 and 8 and 1 and 0 and the “coiled (number of animals)” value (C. elegans; 60uM) was 14 and 16 and 3 and 0 and 7 and 5. For the same molecule, the “no phene (number of animals)” value (C. elegans; 60uM) was 0, the “paralyzed (number of animals)” value (C. elegans; 60uM) was 3 and 2 and 14 and 12 and 15 and the “any phene: mean % fraction” value (C. elegans; 60uM) was 100%. The EC50 (C. elegans) was 1.6 ± 2.8 µM.
